Results on 2 compounds are retold here after patent US20070172439A1, “Method of chemiluminescence-utilizing makeup and beautification, luminant for skin irradiation beautification and makeup/beautification equipment” (priority 2004, published 2007).

The test system of test [1] is mouse melanoma(B16 cell). Description: B16 cell proliferation rate (Abs 260 nm). It is filed as cell-based. The conditions noted are these: VC 1 mM addition (positive control); control = 100. An excerpt:
(§1) • Cell: mouse melanoma(B16 cell) • Chemical luminescentbody: Normal type • Blue fluorescent light, orange fluorescent light, red fluorescent light, green fluorescent light, and yellow fluorescent light • High intensity type • Orange fluorescent light, red fluorescent light, and green fluorescent light (Produced by OmniGlow Japan Co., Ltd.) Assay: • 1. Seeded B16 cell to 24 well plate with […], MEM·10% S(+)·glucosamine culture medium. n=8 • 2. After culturing 5 days, it was transferred to MEM·10% S(+)·theophyline culture medium. • 3. Exposed to fluorescent light by placing the chemical luminescent body in contact with the plate for 4 hr. in the case of normal type and for 30 min. in the case of high intensity type. The control was under no exposure to fluorescent light and the positive control was in the 1 mMVC (Ascorbic acid) addition system. • 4. The cell was recovered three days after the start of exposure, dissolved into 0.1% DS normal saline solution, and then the optical density was measured at 260 nm (index of the amount of cell) and at 475 nm (index of the amount of melanin), and then the cell proliferation rate and the melanin synthesis rate per unit cell was calculated. • The B16 cell proliferation rate is shown in Table 4 and FIG. 7, and the melanin synthesis rate per unit cell is shown in Table 5 and FIG. 8. […]

The subject of test [2] is mouse melanoma(B16 cell). Nature of the test: Melanin synthesis rate per unit cell (Abs 475/260 nm). The test is classed as cell-based. The conditions noted are these: VC 1 mM addition (positive control), control = 100.
Text: as §1

For test [3], the system named is Fibroblast(NHF). Nature of the test: Collagen synthesis rate, PIP kit per MTT (Example 5). It is filed as cell-based, human. As to conditions: PMG 100 mM (positive control); per unit cell; control = 100. As to the method: (§2) • Cell:Fibroblast(NHF) • Chemical luminescence body (produced by OmniGlow Japan Co., Ltd.) • Normal type red (red fluorescent light) • High intensity orange (orange fluorescent light) • Collagen measurement kit: The amount of propeptide at the end of I type collagen C (PIP) is measured by Takara PIP kit. Assay: • (1)NHF is seeded at 2.0×10^4 to 24 well plate with DMEM·10% S(+). • (2) After confluent state is observed by culturing 5 days, it was transferred to non-color and non-blood-serum DMEM. • (3) Fluorescent light is allowed to irradiate (30 min.) by placing the chemical luminescent body in direct contact with 24 well plate. 100 mM PMG(phosphoric acid-L-magnesium ascorbate) addition system was prepared as the positive control. • (4) After 24 hours from the start of irradiation, the upper layer of the medium is recovered. • The amount of propeptide at the end of I type collagen C (PIP) is measured by Tatara PIP kit and then the calorimetric determination of cell proliferation is made by using MTT assay at observation wavelength of 540 nm and at reference wavelength of 655 nm. The cell proliferation rate is calculated by the formula below by setting the control of non-treated group as 100%. […]

In test [4] the test system is Normal human skin fibroblast (NHF). Description: Cell proliferation, MTT assay (Example 1). It is filed as cell-based. As to conditions: fluorescence 4 hrs, 100 mM PMG as positive control, vs untreated control. On the procedure:
The test was performed in the procedure described below: • 1. Cell: Normal human skin fibroblast (NHF) • 2. Chemical fluorescent body: CYALUME Light shape blue, orange and red Seller: OmniGlow Japan Co., Ltd. • 3. Assay: • (1) Seeded NHF to 24 well plate with 2.0×10^4 cells/well, DMEM·10% S(+) • (2) After confluent state is observed by culturing 5 days, it was transferred to non-color and non-blood-serum DMEM. • (3) Exposed to fluorescence (4 hrs.). 100 mM PMG additive system was used as the positive control. • (4) Observed the appearance of the cell (×40) • (5) The quantitative measurement of cell proliferation was made by using MTT assay and by means of colorimetric test with wavelengths of 540 nm for measurement and 655 nm for control. The cell proliferation rate was calculated by using the formula described below, setting the untreated control as 100%. • 4. Calculation formula Cell proliferation rate=([Sample addition OD(540 nm)]−[Sample addition OD(655 nm)])/([Control OD(540 nm)]−[Control OD(655 nm)])×100
On the technique in general: Formazan colour is commonly taken as a measure of viable cells.

The subject of test [5] is Fibroblast(NHF). Description: Fibroblast proliferation, MTT assay (Example 5). The conditions noted are these: PMG 100 mM (positive control); 24 hours. The test is classed as cell-based, human. As to the method: as §2

`O=C1O[C@H]([C@@H](O)CO)C(O)=C1O` [VC, Ascorbic acid]: the “B16 cell proliferation rate (%)” value with mouse melanoma(B16 cell) [1] was 21.42%. Moreover, the “Melanin synthesis rate (%)” value with mouse melanoma(B16 cell) [2] turned out to be 65.28%.

Take “phosphoric acid-L-magnesium ascorbate [PMG]”: in the test with Fibroblast(NHF) [3], the “Collagen synthesis rate (%)” value was found to be 127.6%. Further, the cell proliferation entry in test [4] was “significantly promoted”. For the same compound, the “Fibroblast proliferation rate (%)” value in the test with Fibroblast(NHF) [5] is on record as 138.2%.
